The numbers were not newly measured in US11957681B2, “Liquid dosage forms of Imatinib” (SHORLA PHARMA LTD., priority 2018, dated 2024), which cites them from elsewhere.

For series [1] the following is noted: compared with Imatinib mesylate.

Consider `Cc1ccc(NC(=O)c2ccc(CN3CCNCC3)cc2)cc1Nc1nccc(-c2cccnc2)n1` [N-desmethyl derivative], for which the “Share of the AUC for Imatinib mesylate” value (circulating metabolite) is recorded as “about 15%”. The Elimination half-life (imatinib mesylate orally administered) was roughly 40 h. In series [1], the Potency in vitro entry is recorded as “potency similar to Imatinib mesylate”.
